# According to PMC9388626, “STUB1 is an intracellular checkpoint for interferon gamma sensing” (Scientific Reports, 2022):
# Peptide text beside a SMILES is read from it.
# T1: STUB1 (aa25–aa153) (Homo sapiens, UniProt Q9UNE7)
# T1 sequence (Q9UNE7 25-153): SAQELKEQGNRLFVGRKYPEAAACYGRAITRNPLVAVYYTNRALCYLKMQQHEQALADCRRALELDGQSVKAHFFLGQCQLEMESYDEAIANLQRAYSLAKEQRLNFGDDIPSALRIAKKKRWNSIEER
# T2: Recombinant STUB1 protein, spanning aa25-aa153 (UniProt Q9UNE7 25-153)
# T2 construct: STUB1 (E3 ligase, also STUB1/CHIP), residues 25-153; also called STUB1 (aa25–aa153); CHIP; source: recombinant, produced by Nanyang Technological University protein production platform; purity and identity confirmed by mass spectrometry and SDS-PAGE
# T2 sequence (looked up): T1 sequence (Q9UNE7 25-153)
# T3: Recombinant STUB1 protein, spanning aa25-aa153 (UniProt Q9UNE7 25-153)
# T3 chain: T1 sequence (Q9UNE7 25-153)
# B1: synthetic inhibitory peptide SIWWPD (peptide)
# peptide: Ac-SIWWPD-OH
# notes: source: synthetic peptide, custom made by Chinese Peptide Company (CPC)
# B2: TIEEVD (peptide)
# chain: Ac-TIEEVD-OH
# Tests used:
# [1] = biological target: T1, STUB1 (aa25–aa153); experiment: Competitive fluorescence polarization assay; format: binding; settings: 15 nM 5-FAM-[…] tracer, 1 µM STUB1, PBS pH 7.4, 0.01% Tween 20, room temperature, 30 min; mean ± s.e., six replicates from two independent experiments
# Method: The assays were performed at room temperature using assay buffer (PBS, pH 7.4, 0.01% v/v Tween 20) and black 384-well non-binding polystyrene microplate (Greiner Bio-one, #784900). The peptide of interest was first diluted (10-point, threefold serial dilution) with the assay buffer on the microplate to have a volume of 10 µl in each well. This was followed by the addition of 10 µl mixture containing 5-FAM-[…]-CO2H (30 nM) and the recombinant STUB1 protein (2 µM). The final assay solution (20 µl) contains 5-FAM-labeled tracer peptide (15 nM), protein (1 µM) and peptide of interest (5 nM to 100 µM). After 30 min incubation in the dark, the microplate was read with TECAN Infinite M1000 PRO (Ex: 470 nm, Em: 520 nm, bandwidth: 5 nm, G-factor = 1.05, gain: optimal, #flashes = 10, settle time = 0 ms, z position: calculated from well). Value of polarization (mP) = 1000 × (G × intensity‖ − intensity ⊥ )/(G × intensity‖ + intensity ⊥ ). Half maximal inhibitory concentration (IC50) was determined by fitting the curve using 4-parameter sigmoidal function in GraphPad Prism. Each independent experiment was performed in technical triplicates.
# [2] = biological target: T1, STUB1 (aa25–aa153); experiment: Isothermal titration calorimetry; format: binding; settings: ITC
# Method: Recombinant STUB1 protein, spanning aa25-aa153, was produced by Nanyang Technological University protein production platform. The purity and identity of the protein was confirmed by mass spectrometry and SDS-PAGE. Synthetic peptides, in a form of N-acetylation and free C-terminal carboxylic acid, were custom made by Chinese Peptide Company (CPC). The purity and identity of the peptides were confirmed by analytic HPLC (≥ 95% purity) and mass spectrometry. Peptides are dissolved in neat DMSO as 10 mM stock solution and diluted thereof for subsequent experiments.
# Recombinant STUB1 protein (aa25-aa153) was dialyzed overnight with Slide-A-Lyzer cassette (7 K MWCO, Thermo Scientific, #66373) in 1 L of dialysis buffer (PBS, pH 7.4, 0.5 mM TCEP). The dialyzed protein solution was centrifuged at 15,000 rpm for 10 min at 4 °C to remove potential precipiates. The protein was diluted to 20 µM using the dialysis buffer, followed by the additon of DMSO spike-in (2% final concentration). The synthetic peptides (10 mM in DMSO) were diluted to 200 µM with the dialysis buffer (2% final DMSO concentration). ITC measurements were performed at 25 °C using a Microcal PEAQ-ITC (Malvern Panalytical Inc). An initial injection of 0.4 µl followed by a total of 39 injections of peptide solution (1 µl, 200 µM) were added at an intervals of 2 min into the protein solution (20 µM) while stirring at 750 rpm. The data point produced by the first injection was discarded prior to curve fitting in order to account for the diffusion effect during the equilibration process. The experimental data were fitted to a non-interacting one-site binding model using the analysis software supplied by Microcal, with ΔH (enthalpy change), Ka (association constant) and N (number of binding sites per monomer) as adjustable parameters. Free energy change (ΔG) and entropy contributions (TΔS) were determined from the standard equation: ΔG = ΔH − TΔS = − RT lnKa, where T is the absolute temperature and R = 1.987 cal mol^−1 K^−1.
# [3] = tested on: STUB1 (aa25-aa153); experiment: Thermal shift assay (SYPRO Orange); format: binding; settings: 100 µM peptide, 10 µM protein, relative to DMSO vehicle, mean ± s.d. from three independent experiments
# Excerpt: The SYPRO Orange fluorescent dye (Invitrogen) was used to measure the thermal stability of recombinant STUB1 protein (aa25-aa153). With increasing temperature, binding of the dye molecule to the hydrophobic region of the denatured STUB1 results in an increase in the fluorescence intensity. The midpoint of this transition is termed the Tm. Binding of a ligand, such as peptide, stabilizes the protein and results in a melting temperature shift (ΔTm), which correlates with the binding affinity of the ligand. The thermal shift assay was conducted in a CFX96 real-time PCR detection system (Bio-Rad). A total of 50 µl mixture containing 3.125 × SYPRO Orange (Invitrogen, diluted from 5000 × DMSO stock), 100 µM peptide of interest, and 10 µM protein was prepared in a PCR 8-well strip tube. The samples were heated from 25 to 95 °C in 0.5 °C increment each cycle. The holding time for each cycle is 5 s, after which the fluorescence intensity was measured in Channel 2 (HEX) with Ex/Em: 515–535/560–580 nm. Each independent experiment was performed in technical duplicates.
# [4] = tested on: STUB1; experiment: Co-immunoprecipitation of FLAG-mCherry2-peptide and STUB1; format: binding, murine; settings: spiked into co-IP mixture, room temperature, 4 h
# Method: B16-F10 cells stably expressing the biologic were harvested, rinsed with PBS, and lysed with chilled cell lysis buffer (Cell Signaling Technology, #9803) supplemented with Halt protease inhibitor cocktail (Life Technologies, #78430) and phosphatase inhibitor (Sigma-Aldrich, # 4906837001). Cellular lysates were clarified by centrifugation at 15,000 rpm at 4 °C for 15 min. Protein concentration was determined using BCA protein assay kit (Pierce, #23225). For each sample of the co-immunoprecipitation (co-IP), 20 µl of anti-FLAG magnetic beads (Sigma-Aldrich, M8823) was rinsed twice with 0.2 ml PBS, followed by addition of 500 µl diluted cellular lysate (60 µg, 0.12 µg µl^−1). For competitive inhibition, synthetic peptide (SIWWPD) was added into the co-IP mixture. The resulting mixture was rotated at room temperature for 4 h, after which the beads were rinsed with 3 × 0.5 ml PBS to remove the unbound proteins. Bound protein complexes were directly eluted with a 20 µl solution of LDS sample buffer (Life Technologies, NP0008) supplemented with sample reducing agent (Life Technologies, NP0009), followed by heating at 70 °C for 10 min. […] Blotting was similar to the Western Blot section described above. Primary antibodies used were: STUB1/CHIP (Cell Signaling Technology, #2080, 1:1000 dilution), FLAG (Sigma-Aldrich, F1804, 1:1000 dilution). […]
# [5] = tested on: STUB1; parameters: method as in PMID 31320752; settings: cited from earlier work
# [6] = biological target: T2, Recombinant STUB1 protein, spanning …; experiment: ITC; peptide (200 µM) injected into STUB1 aa25-aa153 (20 µM); 25 °C; PBS pH 7.4, 0.5 mM TCEP, 2% DMSO; one-site binding model; settings: both partners purified
# [7] = biological target: T2, Recombinant STUB1 protein, spanning …; experiment: thermal shift assay; SYPRO Orange; 100 µM peptide, 10 µM STUB1 aa25-aa153; heated from 25 to 95 °C in 0.5 °C increments; settings: both partners purified
# [8] = biological target: T2, Recombinant STUB1 protein, spanning …; experiment: fluorescence polarisation; competitive; 15 nM tracer 5-FAM-…, 1 µM STUB1 aa25-aa153, peptide of interest 5 nM to 100 µM; room temperature; PBS pH 7.4, 0.01% v/v Tween 20; 30 min incubation; settings: both partners purified
# [9] = biological target: T3, Recombinant STUB1 protein, spanning …; experiment: ITC
# [10] = biological target: T3, Recombinant STUB1 protein, spanning …; experiment: FP
molecule,measurement,setting,value
CC[C@H](C)[C@H](NC(=O)[C@H](CO)NC(C)=O)C(=O)N[C@@H](Cc1c[nH]c2ccccc12)C(=O)N[C@@H](Cc1c[nH]c2ccccc12)C(=O)N[C@@H](Cc1c[nH]cn1)C(=O)N[C@@H](CCCNC(=N)N)C(=O)O [SIWWHR] (Ac-SIWWHR-OH),IC50,[1],> 100000 nM
same,Binding to STUB1,[2],non-binding
same,Kd,"[2]; PBS pH 7.4, 0.5 mM TCEP, 2% DMSO, 25 °C, 200 µM peptide into 20 µM protein",> 10000 nM
same,ΔTm,[3],-0.1 ± 0.2 °C
"CC[C@H](C)[C@H](NC(=O)[C@H](CO)NC(C)=O)C(=O)N[C@@H](Cc1c[nH]c2ccccc12)C(=O)N[C@@H](Cc1c[nH]c2ccccc12)C(=O)N1CCC[C@H]1C(=O)N[C@@H](CC(=O)O)C(=O)O [SIWWPD, reference compound] (Ac-SIWWPD-OH)",Reversal of co-immunoprecipitation by synthetic peptide,[4],completely reversible in a dose-dependent manner
same,Binding to STUB1,[2],bound strongly to the protein
same,Blocking of STUB1 interaction with HSPA8,[5],capable of blocking the interaction of STUB1 with HSPA8
same,ΔTm,[3],18.3 ± 0.1 °C
B1,Kd,[6],14 ± 2 nM
same,ΔTm,[7],18.3 °C
same,IC50,[8],340 nM
B2,Kd,[9],2190 nM
same,IC50,[10],2700 nM
